In the METLIN SMRT retention time set (Domingo-Almenara et al. 2019):

Assay: gradient 5% acetonitrile 3 min, to 50% in 2 min, to 85% in 15 min, held 3 min, 100 µL/min
Settings: column: Zorbax Extend-C18 2.1 x 50 mm; eluents: water / acetonitrile, 0.1% formic acid
Outline: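 Data were gathered over 3 months by HPLC coupled to a quadrupole time-of-flight mass spectrometer, operated in positive and negative ionization mode. Mixtures of ~100 pure standards ran on a Zorbax Extend-C18 column (2.1 × 50 mm, 1.8 μm) at 100 μL/min, with water and acetonitrile each containing 0.1% formic acid and dead and dwell volumes of 40 μL and 900 μL. Retention time was read from adduct peaks picked by computer and checked manually.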

Going from `FC(F)(F)c1nc2ccccc2n1CC1CCN(Cc2cn3ccccc3n2)CC1` to `Cc1ccc(Cn2c(=O)c(N3CCN(C(=O)NCC4CCCO4)CC3)nc3ccccc32)cc1` (stereo unspecified), the RP-LC retention time rises from 557 s to 908 s.

Compared with `Cc1cc(C)c(NC(=O)C2CCN(S(C)(=O)=O)c3ccccc3O2)c(C)c1` (stereo unspecified), `Cc1oc2c(c1C(=O)N(C)C)CN(S(=O)(=O)Cc1ccccc1)CC2` is lower in RP-LC retention time: 900 s for the first, 740 s for the second.

First: CCOC(=O)/C=C/c1ccc(O)c(OC)c1
Second: O=C(/C=C/c1cccc(S(=O)(=O)Nc2ccccc2)c1)NO
The RP-LC retention time of the first is higher: 749 s for the first, 679 s for the second.

Going from `O=C(Nc1ccc(C(F)(F)F)cc1)C1CCCN(S(=O)(=O)c2c[nH]c(C(=O)N3CCCC3)c2)C1` (stereo unspecified) to `O=c1ccc(S(=O)(=O)N2CCCCCC2)cn1Cc1cccc(F)c1`, the RP-LC retention time rises from 908 s to 944 s.

Compared with `CCOC(=O)N1CCC(NC(=O)c2coc(NC(=O)c3ccco3)n2)CC1`, `O=C(c1ccco1)N1CCC(n2cnnc2-c2ccccc2)CC1` is higher in RP-LC retention time: 605 s for the first, 639 s for the second.

Compared with `Cc1cc(C)n(-c2ccnc(N3CCC(C(=O)NCC4CC4)CC3)n2)n1`, `O=C(NC1CCCC1)c1cn(-c2cc(-c3nc(C4CC4)no3)ccn2)cn1` is higher in RP-LC retention time: 739 s for the first, 867 s for the second.

Compared with `COc1cccc(Cn2cccc2-c2nc(-c3ccncc3)no2)c1`, `COC(=O)C(C)n1cccc1-c1nc(-c2ccncc2)no1` (stereo unspecified) is lower in RP-LC retention time: 1060 s for the first, 840 s for the second.

Going from `O=C(Nc1cccc(Br)c1)c1cccn1Cc1noc(C2CC2)n1` to `Cc1nc(Cn2cccc2C(=O)NCc2cccc(Br)c2)no1`, the RP-LC retention time falls from 1040 s to 852 s.

First: CCc1ccc(-c2cc(C)no2)cc1S(=O)(=O)N1CCN(c2ccccn2)CC1
Second: O=C(c1ccc(CS(=O)c2ccc(Cl)cc2)o1)N1CCN(c2ccccn2)CC1 (stereo unspecified)
The RP-LC retention time of the first is higher: 757 s for the first, 582 s for the second.

Going from `CCc1noc(NC(C)=O)c1-c1ccc(C)c(S(=O)(=O)Nc2ccc(OC)c(OC)c2)c1` to `CCc1noc(NC(C)=O)c1-c1ccc(OC)c(S(=O)(=O)Nc2ccc(C)c(Cl)c2)c1`, the RP-LC retention time rises from 840 s to 1300 s.

Going from `O=C(CCn1cnc2c(cnn2-c2ccccc2)c1=O)N1CCN(C(=O)c2ccco2)CC1` to `Cc1c2cnn(-c3ccccc3)c(=O)c2c(C)n1C(C)C(=O)NCCN1CCOCC1` (stereo unspecified), the RP-LC retention time falls from 653 s to 607 s.

Going from `O=C(NCc1ccco1)Nc1cccn2c(C3CCC3)nnc12` to `O=C(NCC1Cn2cccc2C(=O)N1Cc1ccccc1)NC1CCCC1` (stereo unspecified), the RP-LC retention time rises from 694 s to 734 s.

First: C=CCN(CC=C)S(=O)(=O)c1ccc(C(=O)N2CCc3ccccc3C2)cc1
Second: CN(C)S(=O)(=O)c1ccc(-c2nnc(C(=O)NCCN3CCCC3)o2)cc1
The RP-LC retention time of the first is higher: 940 s for the first, 574 s for the second.

First: COc1ccc(Cl)cc1S(=O)(=O)N1CCC(n2cnnc2C(C)C)CC1
Second: CC(C)CCNC(=O)c1nnc(-c2ccc(S(=O)(=O)N3CCCCC3)cc2)o1
The RP-LC retention time of the first is lower: 732 s for the first, 1030 s for the second.

First: Cc1nnc(NC(=O)c2ccc(OCc3nc(-c4ccco4)cs3)cc2)s1
Second: CCCn1c(CCNC(=O)c2ccc(OC)cc2)nc2cccnc21
The RP-LC retention time of the first is higher: 815 s for the first, 662 s for the second.

Going from `COCCN1C(=O)c2ccccc2C(C(=O)Nc2nc(C)cs2)C12CCCCC2` (stereo unspecified) to `Cc1cc(NC(=O)CCn2cnc3ccccc3c2=O)sn1`, the RP-LC retention time falls from 810 s to 619 s.

Compared with `COc1ccc(C(=O)N2CCC3(CC2)NC(=O)c2cc(F)ccc2N3C)cc1OC`, `Cc1sc2ccn(C)c(=O)c2c1C(=O)N1CCN(c2ccc(F)cc2)CC1` is higher in RP-LC retention time: 715 s for the first, 746 s for the second.

Compared with `O=S(=O)(Cc1ccc(Cl)cc1)N1CCc2nc(-c3ccc(F)cc3)ncc2C1`, `CCOc1ccc(-c2ccc(=O)n(Cc3nc(-c4ccc(CC)cc4)no3)n2)cc1` is higher in RP-LC retention time: 1100 s for the first, 1230 s for the second.

Compared with `CCc1ccc(NC(=O)Cn2c(=O)c3cc(-c4ccco4)nn3c3ncccc32)cc1`, `O=C(Cn1nc2nc(Nc3ccc(F)cc3)ccn2c1=O)Nc1ccccc1F` is lower in RP-LC retention time: 882 s for the first, 754 s for the second.

Going from `CCNC(=O)N1CC=C(C(=O)Nc2ccc(F)cc2)CC1` to `CCNC(=O)N1CCCC(c2cccc(C(=O)NCc3ccc(CC)cc3)c2)C1` (stereo unspecified), the RP-LC retention time rises from 672 s to 908 s.

Compared with `O=c1ccc(-c2ccccc2)nn1CCc1nc(-c2ccccc2Br)no1`, `CCOc1ccccc1-c1noc(CN2C(=O)COc3ccc(S(=O)(=O)CC)cc32)n1` is lower in RP-LC retention time: 965 s for the first, 902 s for the second.

First: O=C(Cn1nc2c(cc1=O)CCCCC2)Nc1cccc(N2CCCCS2(=O)=O)c1
Second: O=c1n(Cc2ccccc2Cl)nc2ccc(S(=O)(=O)N3CCCCCC3)cn12
The RP-LC retention time of the first is lower: 762 s for the first, 1000 s for the second.

First: O=C(c1noc2c1CCCC2)N1CCN(c2ccccn2)CC1
Second: O=C(C1CCCN(c2nnc(N3CCCC3=O)s2)C1)N1CCN(c2ccccn2)CC1 (stereo unspecified)
The RP-LC retention time of the first is higher: 613 s for the first, 582 s for the second.

First: CCOC(=O)c1oc2ccc(S(=O)(=O)N3CCCC(c4nn[nH]n4)C3)cc2c1C (stereo unspecified)
Second: Cc1cc2c(cc1S(=O)(=O)N1CCCC1C(=O)NCc1ccc3c(c1)OCO3)OCC(=O)N2 (stereo unspecified)
The RP-LC retention time of the first is higher: 822 s for the first, 718 s for the second.

Going from `O=C(CCc1c(-c2ccc(Cl)cc2)nc2ccccn12)NCc1ccccc1F` to `Cc1ccc(CNC(=O)Cn2ccc3ccc(-c4nnc(C)o4)cc32)cc1`, the RP-LC retention time rises from 688 s to 798 s.

First: CCCC(=O)Nc1cc2c(cc1S(=O)(=O)c1ccc(F)cc1)n(C)c(=O)n2C
Second: O=C1NCCCn2cc(S(=O)(=O)Nc3ccc(F)cc3Cl)cc21
The RP-LC retention time of the first is higher: 767 s for the first, 650 s for the second.

Going from `CCc1nc(OCC(=O)Nc2cc(Cl)c(OC)cc2OC)c2ccccc2n1` to `CCCCNC(=O)c1nc(Nc2ccc(F)cc2)c2ccccc2n1`, the RP-LC retention time falls from 848 s to 796 s.

First: Cc1ccc(-c2nnc(-c3nn(C)c4c3CN(S(=O)(=O)c3c(C)cc(C)cc3C)CC4)o2)cc1
Second: COc1ccc(-c2nc(-c3cn(Cc4cccc(F)c4)nn3)no2)cc1OC
The RP-LC retention time of the first is higher: 1160 s for the first, 901 s for the second.

Compared with `O=C(C1CC1)N1CCCN(c2ccc([N+](=O)[O-])cc2)CC1`, `COc1ccc(C(=O)N(CCS(=O)(=O)N2CCNCC2)CC2CCCO2)cc1` (stereo unspecified) is lower in RP-LC retention time: 688 s for the first, 609 s for the second.

Going from `CC(C)CN1CCCCc2cc(C(=O)NC(C)(C)C)sc21` to `O=C(c1cn[nH]c1)N1CCC(c2nc(CCOCC3CCCC3)no2)C1` (stereo unspecified), the RP-LC retention time falls from 1270 s to 717 s.

Compared with `O=C(Nc1ccc2c(c1)OCCO2)c1c(O)c2cccnc2n(-c2ccc(F)cc2)c1=O`, `COc1ccc(Cc2nc3nccc(-c4ccc(F)cc4OC)n3n2)cc1` is lower in RP-LC retention time: 1120 s for the first, 871 s for the second.

Compared with `Cc1ccc(CN2C[C@@H](CO)[C@H](c3nc(-c4cccnc4)no3)C2)o1`, `Cc1cccc(Nc2nc3ccncc3n(Cc3ccccc3)c2=O)c1` is higher in RP-LC retention time: 596 s for the first, 673 s for the second.

Compared with `Cc1cc(-c2cc(S(=O)(=O)NCCc3ccc(Cl)cc3)c(C)s2)n[nH]1`, `CCS(=O)(=O)Nc1ccc(C2(C(=O)NCC3CCCO3)CCCCC2)cc1` (stereo unspecified) is lower in RP-LC retention time: 915 s for the first, 781 s for the second.
